Experimental data reported in patent US10077261B2, “Imidazolin-5-one derivative useful as FASN inhibitors for the treatment of cancer” (Janssen Pharmaceutica NV, priority 2012, dated 2018).

Tests used:
[1] = system: A2780 ovarian cells; assay: A2780 ovarian cell proliferation assay in lipid reduced medium, without palmitate (MTT); format: cell-based; details: Homo sapiens, A2780, 96 h; read-out: pIC50 A2780 Ovarian Cell, Without Palmitate (converted)
[2] = molecular target: T1, hFASN enzyme (full length) (Homo sapiens, UniProt P49327); assay: Fatty Acid Synthase (FASN) inhibition scintillation proximity assay; format: biochemical; details: for inhibition at 10 µM: read-out: Human FASN % inhibition @ 10 μM, 10 μM test compound; for IC50: read-out: Human FASN pIC50 (converted)
T1 construct: 10 μL hFASN enzyme (full length, 300 ng, purified in house); made in house
Method in brief: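 Read-out relies on hydrophobic ³H-palmitate product, formed from ³H-acetyl-CoA and malonyl-CoA, binding streptavidin imaging beads, measured at 610±20 nm after at least 24 h. Full-length enzyme (300 ng) in phosphate buffer pH 7.5 with DTT; eight compound concentrations, 0.01–30 μM.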

[3] = system: A2780 ovarian cells; assay: A2780 ovarian cell proliferation assay in lipid reduced medium, with palmitate (MTT); format: cell-based; details: Homo sapiens, A2780, 96 h; read-out: pIC50 A2780 Ovarian Cell, With Palmitate (converted)
Method in brief: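 In this palmitate-supplemented format, compound dilutions (30 μM down to 0.01 μM) are added to cells in lipid-reduced serum with 25 μM palmitate, 0.2% fatty-acid-free BSA and 0.25% ethanol. After four days (96 h) MTT absorbance at 544 nm is recorded and fitted by minimum sum of squares.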

[4] = molecular target: Fatty Acid Synthase Keto-reductase Domain (FASN KR) (Homo sapiens, UniProt P49327); assay: Fatty Acid Synthase keto-reductase domain (FASN KR) inhibition, NADPH oxidation at 340 nm
Method: After 20 minutes incubation at room temperature the plate was measured again (T2).
The decrease in absorbance was calculated as (Absorbance before incubation T1)−(Absorbance following incubation T2).
A plot of Controlmin versus test compound concentration was fitted to a 4-parameter logistic curve using a non-linear least squares regression method.

[5] = system: LNCaP-Vancouver prostate cells; assay: In vitro LNCaP Vancouver prostate cell proliferation assay in lipid reduced medium; format: cell-based; details: read-out: pIC50 LNCaP_Vancouver prostate cell (converted)
[6] = system: PC-3M-Luc-C6 prostate cells; assay: In vitro PC-3M-Luc-C6 prostate cell proliferation assay in lipid reduced medium; format: cell-based; details: 96 h, read-out: pIC50 PC-3M-Luc-C6 prostate cell (converted)

T1 sequence (P49327 whole entry): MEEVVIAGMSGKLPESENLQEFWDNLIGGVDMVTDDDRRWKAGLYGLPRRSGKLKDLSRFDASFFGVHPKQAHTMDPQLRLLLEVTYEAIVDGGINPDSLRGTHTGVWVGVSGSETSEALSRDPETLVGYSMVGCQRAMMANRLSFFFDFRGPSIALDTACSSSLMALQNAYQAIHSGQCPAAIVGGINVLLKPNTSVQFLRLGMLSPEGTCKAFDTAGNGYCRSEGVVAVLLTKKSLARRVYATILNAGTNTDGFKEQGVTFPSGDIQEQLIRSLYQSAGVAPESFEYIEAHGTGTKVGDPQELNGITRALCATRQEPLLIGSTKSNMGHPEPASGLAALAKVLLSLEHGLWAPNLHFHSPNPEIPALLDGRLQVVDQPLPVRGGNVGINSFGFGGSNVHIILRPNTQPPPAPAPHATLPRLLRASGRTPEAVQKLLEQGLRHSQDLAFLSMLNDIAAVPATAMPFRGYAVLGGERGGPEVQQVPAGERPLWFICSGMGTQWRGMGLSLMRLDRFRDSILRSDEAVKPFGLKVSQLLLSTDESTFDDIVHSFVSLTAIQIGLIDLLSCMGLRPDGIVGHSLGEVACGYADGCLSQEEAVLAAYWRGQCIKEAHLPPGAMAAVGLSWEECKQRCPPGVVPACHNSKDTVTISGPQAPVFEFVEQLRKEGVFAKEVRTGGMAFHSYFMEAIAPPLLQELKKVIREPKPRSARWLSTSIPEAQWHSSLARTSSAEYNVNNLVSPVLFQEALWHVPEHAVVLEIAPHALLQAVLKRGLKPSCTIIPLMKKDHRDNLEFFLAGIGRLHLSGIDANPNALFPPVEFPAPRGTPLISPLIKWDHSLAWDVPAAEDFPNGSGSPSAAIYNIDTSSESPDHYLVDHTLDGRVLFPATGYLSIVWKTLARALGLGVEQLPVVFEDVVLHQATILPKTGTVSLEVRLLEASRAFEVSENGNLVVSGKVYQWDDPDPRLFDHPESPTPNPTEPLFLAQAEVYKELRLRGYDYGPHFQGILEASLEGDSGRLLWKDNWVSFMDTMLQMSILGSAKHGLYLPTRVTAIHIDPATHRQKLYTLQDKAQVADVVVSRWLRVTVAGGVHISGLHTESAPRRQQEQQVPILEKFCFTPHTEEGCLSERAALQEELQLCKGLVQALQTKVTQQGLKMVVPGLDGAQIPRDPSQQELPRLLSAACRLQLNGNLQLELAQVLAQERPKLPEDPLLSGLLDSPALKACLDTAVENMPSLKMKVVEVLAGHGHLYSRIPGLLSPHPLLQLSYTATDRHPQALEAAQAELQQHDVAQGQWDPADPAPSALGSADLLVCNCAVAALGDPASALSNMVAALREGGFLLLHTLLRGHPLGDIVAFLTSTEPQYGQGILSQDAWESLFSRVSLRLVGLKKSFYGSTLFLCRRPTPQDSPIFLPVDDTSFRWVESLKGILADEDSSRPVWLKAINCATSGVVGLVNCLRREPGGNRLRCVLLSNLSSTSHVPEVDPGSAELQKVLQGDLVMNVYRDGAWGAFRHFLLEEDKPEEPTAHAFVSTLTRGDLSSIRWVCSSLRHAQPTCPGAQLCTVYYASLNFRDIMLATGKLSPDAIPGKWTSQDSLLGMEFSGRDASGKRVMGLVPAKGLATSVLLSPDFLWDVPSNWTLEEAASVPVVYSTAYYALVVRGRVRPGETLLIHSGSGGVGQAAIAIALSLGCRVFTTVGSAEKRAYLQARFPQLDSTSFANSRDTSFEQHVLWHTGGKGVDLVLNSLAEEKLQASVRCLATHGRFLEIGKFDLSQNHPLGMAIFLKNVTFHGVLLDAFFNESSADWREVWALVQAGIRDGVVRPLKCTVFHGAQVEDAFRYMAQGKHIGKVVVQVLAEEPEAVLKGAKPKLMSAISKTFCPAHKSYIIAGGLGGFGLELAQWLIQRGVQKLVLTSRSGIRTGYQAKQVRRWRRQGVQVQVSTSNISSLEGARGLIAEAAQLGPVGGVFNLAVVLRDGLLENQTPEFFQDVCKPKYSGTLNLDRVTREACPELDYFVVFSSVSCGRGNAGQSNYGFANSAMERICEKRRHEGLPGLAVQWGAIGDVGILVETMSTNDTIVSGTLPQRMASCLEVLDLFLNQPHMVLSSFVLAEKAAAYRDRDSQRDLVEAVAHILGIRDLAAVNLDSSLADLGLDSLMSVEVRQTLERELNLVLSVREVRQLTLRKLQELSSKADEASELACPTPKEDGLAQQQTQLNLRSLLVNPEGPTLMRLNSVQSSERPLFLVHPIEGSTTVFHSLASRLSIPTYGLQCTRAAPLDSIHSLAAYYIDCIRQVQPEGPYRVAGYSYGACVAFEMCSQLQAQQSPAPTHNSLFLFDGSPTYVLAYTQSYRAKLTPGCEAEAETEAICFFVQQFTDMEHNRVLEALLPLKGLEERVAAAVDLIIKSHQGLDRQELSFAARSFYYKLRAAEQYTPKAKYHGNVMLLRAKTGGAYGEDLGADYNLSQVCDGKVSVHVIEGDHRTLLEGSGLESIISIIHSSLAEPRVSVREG
Sequence of Fatty Acid Synthase Keto-reductase Domain (FASN KR) (P49327 whole entry, the tested form may be a part): as the sequence (P49327 whole entry) above

| SMILES | IC50 [1] [nM] | inhibition at 10 µM [2] [%] | IC50 [2] [nM] | IC50 [3] [nM] | IC50 [4] [nM] | IC50 [5] [nM] | IC50 [6] [nM] |
| --- | --- | --- | --- | --- | --- | --- | --- |
| O=C(C1CC1)N1CC(CN2C(=O)C3(CC3)N=C2c2ccc(-c3ccc4cc(F)ccc4c3)cc2F)C1 [compound 349, 6-((1-(cyclopropanecarbonyl)azetidin-3-yl)methyl)-5-(2-fluoro-4-(6-fluoronaphthalen-2-yl)phenyl)-4,6-diazaspiro[2.4]hept-4-en-7-one] | ~30.9 | 102 | 16.6 | > 10000 | 58.9 | 138 | 33.9 |
| Cn1cc2ccc(-c3ccc(C4=NC5(CC5)C(=O)N4CC4CN(C(=O)C5CC5)C4)c(F)c3)cc2n1 [compound 227, 6-((1-(cyclopropanecarbonyl)azetidin-3-yl)methyl)-5-(2-fluoro-4-(2-methyl-2H-indazol-6-yl)phenyl)-4,6-diazaspiro[2.4]hept-4-en-7-one] | 13.2 | 99 | 42.7 | > 10000 | 151 | 355 | 55 |
| Cc1cc(-c2ccc3oc(C)c(C)c3c2)ccc1C1=NC2(CC2)C(=O)N1CC1CN(C(=O)C2CC2)C1 [compound 398, 6-{[1-(Cyclopropylcarbonyl)azetidin-3-yl]methyl}-5-[4-(2,3-dimethyl-1-benzofuran-5-yl)-2-methylphenyl]-4,6-diazaspiro[2.4]hept-4-en-7-one] | ~2290 | 102 | 263 | > 10000 | 955 | 2340 | 1740 |
| O=C([C@H]1CCCO1)N1CC(CN2C(=O)C3(CCOCC3)N=C2c2ccc(-c3ccc4occc4c3)cc2)C1 [compound 704, 2-[4-(1-Benzofuran-5-yl)phenyl]-3-({1-[(2R)-tetrahydro-furan-2-ylcarbonyl]azetidin-3-yl}methyl)-8-oxa-1,3-diazaspiro[4.5]dec-1-en-4-one] |  | 86 | 871 |  | 6610 | 6920 | ~5750 |
| O=C(C1CC1)N1CC[C@@H](CN2C(=O)C3(CC3)N=C2c2ccc(-c3cnc4ccccc4c3)cc2F)C1 [compound 257, (R)-6-((1-(cyclopropanecarbonyl)pyrrolidin-3-yl)methyl)-5-(2-fluoro-4-(quinolin-3-yl)phenyl)-4,6-diazaspiro[2.4]hept-4-en-7-one] |  | 99 | 49 |  | 200 | 263 | 70.8 |
| O=C(C1CC1)N1CC(CN2C(=O)C3(CC3)N=C2c2ccc(-c3ccc4cccnc4c3F)cc2)C1 [compound 315, 6-((1-(cyclopropanecarbonyl)azetidin-3-yl)methyl)-5-(4-(8-fluoroquinolin-7-yl)phenyl)-4,6-diazaspiro[2.4]hept-4-en-7-one] |  | 98 | 66.1 |  | 251 | 631 | 123 |
| Cn1ccc2cc(-c3ccc(C4=NC5(CC5)C(=O)N4CC4CN(C(=O)C5CC5)C4)cc3)ccc21 [compound 344, 6-((1-(cyclopropanecarbonyl)azetidin-3-yl)methyl)-5-(4-(1-methyl-1H-indol-5-yl)phenyl)-4,6-diazaspiro[2.4]hept-4-en-7-one] |  | 99 | 25.7 |  | 45.7 | 141 | ~32.4 |
| O=C([C@H]1CCCO1)N1CC[C@@H](CN2C(=O)C3(CCOC3)N=C2c2ccc(-c3ccc4occc4c3)cc2)C1 (stereo partly drawn) [compound 688, 2-[4-(1-Benzofuran-5-yl)phenyl]-3-({(3R)-1-[(2R)-tetrahydro-furan-2-ylcarbonyl]pyrrolidin-3-yl}methyl)-7-oxa-1,3-diazaspiro[4.4]non-1-en-4-one] |  | 99 | 214 |  | 525 | 2950 | 832 |
| COC(=O)N1CC2(C1)N=C(c1ccc(-c3ccc(-c4cnn(C)c4)cc3)cc1)N(C[C@@H]1CCN(C(=O)[C@H]3CCCO3)C1)C2=O [compound 727, Methyl 6-[4′-(1-methyl-1H-pyrazol-4-yl)biphenyl-4-yl]-8-oxo-7-({(3R)-1-[(2R)-tetrahydro-furan-2-ylcarbonyl]pyrrolidin-3-yl}methyl)-2,5,7-triazaspiro[3.4]ect-5-ene-2-carboxylate] |  | 98 | 204 |  | 1100 | 2400 | 575 |
| Cn1ncc2cc(-c3ccc(C4=NC5(CCOC5)C(=O)N4C[C@@H]4CCN(C(=O)[C@H]5CCCO5)C4)cc3)ccc21 (stereo partly drawn) [compound 692, 2-[4-(1-Methyl-1H-indazol-5-yl)phenyl]-3-({(3R)-1-[(2R)-tetrahydro-furan-2-ylcarbonyl]pyrrolidin-3-yl}metrhyl)-7-oxa-1,3-diazaspiro[4.4]non-1-en-4-one] |  | 99 | 794 |  | 3240 | 4570 | 1580 |
| Cn1cc(-c2ccc(-c3ccc(C4=NC5(CCOCC5)C(=O)N4C[C@@H]4CCN(C(=O)[C@H]5CCCO5)C4)cc3)cc2)cn1 [compound 657, 2-[4′-(1-Methyl-1H-pyrazol-4-yl)biphenyl-4-yl]-3-({(3R)-1-[(2R)-tetrahydro-furan-2-ylcarbonyl]pyrrolidin-3-yl}methyl)-8-oxa-1,3-diazaspiro[4.5]dec-1-en-4-one] |  | 97 | 309 |  | 661 | 3800 | 589 |
| O=C(C1CC1)N1CC(CN2C(=O)C3(CC3)N=C2c2ccc(-c3cnc4ccccc4c3)cc2)C1 [compound 519, 6-{[1-(Cyclopropylcarbonyl)azetidin-3-yl]methyl}-5-(4-quinolin-3-ylphenyl)-4,6-diazaspiro[2.4]hept-4-en-7-one] |  | 96 | 158 |  | 389 | 2690 | 550 |
| CC(O)C(=O)N1CC(CN2C(=O)C3(CCOC3)N=C2c2ccc(-c3ccc4cccnc4c3)cc2)C1 (centres unmarked) [compound 715, 3-{[1-(2-Hydroxypropanoyl)azetidin-3-yl]methyl}-2-(4-quinolin-7-ylphenyl)-7-oxa-1,3-diazaspiro[4.4]non-1-en-4-one] |  | 86 | 724 |  | 5500 | > 10000 | 5010 |
| Cn1ncc2cc(-c3ccc(C4=NC5(CCOCC5)C(=O)N4C[C@@H]4CCN(C(=O)[C@H]5CCCO5)C4)cc3)ccc21 [compound 674, 2-[4-(1-Methyl-1H-indazol-5-yl)phenyl]-3-({(3R)-1-[(2R)-tetrahydro-furan-2-ylcarbonyl]pyrrolidin-3-yl}methyl)-8-oxa-1,3-diazaspiro[4.5]dec-1-en-4-one] |  | 94 | 457 |  | 3160 | ~4900 | ~813 |
| O=C([C@H]1CCCO1)N1CC[C@@H](CN2C(=O)C3(CCOCC3)N=C2c2ccc(-c3ccc4cccnc4c3)cc2)C1 [compound 663, 2-(4-Quinolin-7-ylphenyl)-3-({(3R)-1-[(2R)-tetrahydro-furan-2-ylcarbonyl]pyrrolidin-3-yl}methyl)-8-oxa-1,3-diazaspiro[4.5]dec-1-en-4-one] |  | 100 | 64.6 |  | 275 | 550 | 117 |
| Cn1ncc2c(-c3ccc(C4=NC5(CC5)C(=O)N4CC4CN(C(=O)C5CC5)C4)cc3)cccc21 [compound 515, 6-{[1-(Cyclopropylcarbonyl)azetidin-3-yl]methyl}-5-[4-(1-methyl-1H-indazol-4-yl)phenyl]-4,6-diazaspiro[2.4]hept-4-en-7-one] |  | 96 | 182 |  | 437 | 2140 | 562 |
| COC(=O)N1CC2(C1)N=C(c1ccc(-c3ccc4occc4c3)cc1)N(C[C@@H]1CCN(C(=O)[C@H]3CCCO3)C1)C2=O [compound 735, Methyl 6-[4-(1-benzofuran-5-yl)phenyl]-8-oxo-7-({(3R)-1-[(2T)-tetrahydro-furan-2-ylcarbonyl]pyrrolidin-3-yl}methyl)-2,5,7-triazaspiro[3.4]oct-5-ene-2-carboxylate] |  | 97 | 135 |  | 851 | 3800 | ~912 |
| Cn1cc(-c2ccc(-c3ccc(C4=NC5(CCOCC5)C(=O)N4C[C@@H]4CCN(C(=O)C5CC5)C4)cc3)cc2)cn1 [compound 655, 3-{[(3R)-1-(cyclopropylcarbonyl)pyrrolidin-3-yl]methyl}-2-[4′-(1-methyl-1H-pyrazol-4-yl)biphenyl-4-yl]-8-oxa-1,3-diazaspiro[4.5]dec-1-en-4-one] |  | 99 | 178 |  | 407 | ~2510 | ~234 |
| Cn1cc2cc(-c3ccc(C4=NC5(CC5)C(=O)N4CC4CN(C(=O)C5CC5)C4)cc3)ccc2n1 [compound 507, 6-{[1-(Cyclopropylcarbonyl)azetidin-3-yl]methyl}-5-[4-(2-methyl-2H-indazol-5-yl)phenyl]-4,6-diazaspiro[2.4]hept-4-en-7-one] |  | 89 | 417 |  | 3630 | 6030 | ~1170 |
